Results: patent US10301664B2, “Repurposing non-antimicrobial drugs and clinical molecules to treat bacterial infections” (Purdue Research Foundation, priority 2015, dated 2019)
Values after ≈ are worked out from the molar mass of the structure shown. Where two headings read alike, the source gives them in different places.

Columns and labels:
[1] = system: Vancomycin-resistant S. aureus (VRSA); assay: MIC and MBC against vancomycin-resistant S. aureus clinical isolates (CLSI); type: cell-based; conditions: Staphylococcus aureus, VRSA; for MBC: read-out: MBC; for MIC: read-out: MIC
[2] = system: Methicillin resistant S. aureus (MRSA); assay: MIC and MBC against methicillin resistant S. aureus clinical isolates (CLSI); type: cell-based; conditions: Staphylococcus aureus; for MBC: read-out: MBC; for MIC: read-out: MIC
[3] = system: Methicillin-sensitive S. aureus (MSSA); assay: MIC and MBC against methicillin-sensitive S. aureus isolates (CLSI); type: cell-based; conditions: Staphylococcus aureus; for MBC: read-out: MBC; for MIC: read-out: MIC
[4] = system: Vancomycin-intermediate S. aureus (VISA); assay: MIC and MBC against vancomycin-intermediate S. aureus isolates (CLSI); type: cell-based; conditions: Staphylococcus aureus; for MBC: read-out: MBC; for MIC: read-out: MIC
S. epidermidis NRS 101 = assay: MIC and MBC against S. epidermidis (CLSI); type: cell-based; conditions: Staphylococcus epidermidis, NRS101
[5] = system: E. fecalis ATCC 51229 (VRE); assay: MIC and MBC against E. fecalis VRE (CLSI); type: cell-based; conditions: Enterococcus
Method: The NIH Clinical Collections 1 and 2 (http://www.nihclinicalcollection.com) containing 727 FDA approved drugs and small molecules previously used in human clinical trials with known safety profiles were screened against ESKAPE pathogens. The library was initially screened at a single concentration of 16 μM to identify “hit” non-antibacterial drugs. Once the antimicrobial activity of the drugs was confirmed, we determined their MICs and minimum bactericidal concentrations (MBCs) according to the Clinical and Laboratory Standards Institute (CLSI).

[6] = system: E. faecium ATCC 700221 (VRE); assay: MIC and MBC against E. faecium VRE (CLSI), Table 1; type: cell-based; conditions: Enterococcus faecium
[7] = system: clinical isolates of S. aureus; assay: MIC90 over clinical isolates of S. aureus; type: cell-based; conditions: Staphylococcus aureus, Table 1, read-out: MIC90 (MIC at which 90% of clinical isolates of S. aureus were inhibited)
MRSA USA300 = assay: Library hits: MIC/MBC against MRSA; type: cell-based, Staphylococcus aureus; conditions: Staphylococcus aureus
[8] = system: vancomycin resistant E. faecium ATCC 700221 (VRE); assay: Library hits: MIC/MBC against VRE; type: cell-based; conditions: VRE
MRSA USA200 = type: in vivo, BALB/c mice; conditions: EB 30 mg/kg or FdUrd 25 mg/kg once daily for three days, monitored six days
Method: Animal procedures were approved by the Purdue University Animal Care and Use Committee (PACUC) (protocol no. 1311000988). Eight-week-old female BALB/c mice (Harlan Laboratories, Indianapolis, Ind.) were used for this study. Mice were rendered neutropenic by treatment with cyclophosphamide intraperitoneally (IP) 150 and 100 mg/kg at four days and one day before infection, respectively. Neutropenic mice were inoculated IP with 8×10^8 MRSA USA200. At one hour after infection, the mice were divided into five groups (n=10 per group), and two groups were treated orally with either EB 30 mg/kg or FdUrd 25 mg/kg. Two groups were treated IP with either EB 30 mg/kg or FdUrd 25 mg/kg. One group was used as a control with no treatment. Treatment was continued once daily for two more days (animals received three doses total). Mortality was monitored four times daily for six days, and the cumulative percent survival was determined. The data were subjected to statistical analysis using Kaplan-Meier survival curves. A log rank test was performed for 95% confidence intervals by GraphPad Prism 6.0 (GraphPad Software, La Jolla, Calif.).

[9] = MRSA / NRS 119, NRS119 (resistant to linezolid)

O=c1[nH]c(=O)n([C@H]2C[C@H](O)[C@@H](CO)O2)cc1F [FdUrd, 5-fluoro-2′-deoxyuridine]
MBC ([1]; VRSA1): 7.8 ng/mL (≈ 31.7 nM)
MIC ([1]; VRSA1): 7.8 ng/mL (≈ 31.7 nM)
MBC ([1]; VRSA2): 15.6 ng/mL (≈ 63.4 nM)
MIC ([1]; VRSA2): 3.9 ng/mL (≈ 15.8 nM)
MBC ([1]; VRSA3a): 0.975 ng/mL (≈ 3.96 nM)
MIC ([1]; VRSA3a): 0.975 ng/mL (≈ 3.96 nM)
MBC ([1]; VRSA3b): 0.49 ng/mL (≈ 1.99 nM)
MIC ([1]; VRSA3b): 0.49 ng/mL (≈ 1.99 nM)
MBC ([1]; VRSA4): 3.9 ng/mL (≈ 15.8 nM)
MIC ([1]; VRSA4): 1.95 ng/mL (≈ 7.92 nM)
MBC ([1]; VRSA5): 1.95 ng/mL (≈ 7.92 nM)
MIC ([1]; VRSA5): 1.95 ng/mL (≈ 7.92 nM)
MBC ([1]; VRSA6): 1.95 ng/mL (≈ 7.92 nM)
MIC ([1]; VRSA6): 0.49 ng/mL (≈ 1.99 nM)
MBC ([1]; VRSA7): 3.9 ng/mL (≈ 15.8 nM)
MIC ([1]; VRSA7): 1.95 ng/mL (≈ 7.92 nM)
MBC ([1]; VRSA8): 0.975 ng/mL (≈ 3.96 nM)
MIC ([1]; VRSA8): 0.49 ng/mL (≈ 1.99 nM)
MBC ([1]; VRSA9): 1.95 ng/mL (≈ 7.92 nM)
MIC ([1]; VRSA9): 0.975 ng/mL (≈ 3.96 nM)
MBC ([1]; VRSA10): 0.975 ng/mL (≈ 3.96 nM)
MIC ([1]; VRSA10): 0.975 ng/mL (≈ 3.96 nM)
MBC ([1]; VRSA11a): 15.6 ng/mL (≈ 63.4 nM)
MIC ([1]; VRSA11a): 0.975 ng/mL (≈ 3.96 nM)
MBC ([1]; VRSA11b): 3.9 ng/mL (≈ 15.8 nM)
MIC ([1]; VRSA11b): 0.975 ng/mL (≈ 3.96 nM)
MBC ([1]; VRSA12): 3.9 ng/mL (≈ 15.8 nM)
MIC ([1]; VRSA12): 1.95 ng/mL (≈ 7.92 nM)
MBC ([1]; VRSA13): 15.6 ng/mL (≈ 63.4 nM)
MIC ([1]; VRSA13): 1.95 ng/mL (≈ 7.92 nM)
MBC ([2]; MRSA / NRS 70): 3.15 ng/mL (≈ 12.8 nM)
MIC ([2]; MRSA / NRS 70): 3.9 ng/mL (≈ 15.8 nM)
MBC ([2]; MRSA / NRS 71): 1.95 ng/mL (≈ 7.92 nM)
MIC ([2]; MRSA / NRS 71): 1.95 ng/mL (≈ 7.92 nM)
MBC ([2]; MRSA / NRS 100): 0.975 ng/mL (≈ 3.96 nM)
MIC ([2]; MRSA / NRS 100): 0.975 ng/mL (≈ 3.96 nM)
MBC ([2]; MRSA / NRS 108): 15.6 ng/mL (≈ 63.4 nM)
MIC ([2]; MRSA / NRS 108): 7.8 ng/mL (≈ 31.7 nM)
MBC [2, 9]: 15.6 ng/mL (≈ 63.4 nM)
MIC [2, 9]: 3.9 ng/mL (≈ 15.8 nM)
MBC ([2]; MRSA / NRS 123): 3.9 ng/mL (≈ 15.8 nM)
MIC ([2]; MRSA / NRS 123): 0.975 ng/mL (≈ 3.96 nM)
MBC ([2]; MRSA / NRS 194): 62.5 ng/mL (≈ 254 nM)
MIC ([2]; MRSA / NRS 194): 3.9 ng/mL (≈ 15.8 nM)
MBC ([2]; MRSA / NRS 382): 7.8 ng/mL (≈ 31.7 nM)
MIC ([2]; MRSA / NRS 382): 0.975 ng/mL (≈ 3.96 nM)
MBC ([2]; MRSA / NRS 383): 7.8 ng/mL (≈ 31.7 nM)
MIC ([2]; MRSA / NRS 383): 7.8 ng/mL (≈ 31.7 nM)
MBC ([2]; MRSA / NRS 384, NRS 384): 1.95 ng/mL (≈ 7.92 nM)
MIC ([2]; MRSA / NRS 384, NRS 384): 1.95 ng/mL (≈ 7.92 nM)
MBC ([2]; MRSA / NRS 385, NRS 385): 31.5 ng/mL (≈ 128 nM)
MIC ([2]; MRSA / NRS 385, NRS 385): 31.5 ng/mL (≈ 128 nM)
MBC ([2]; MRSA / NRS 386, NRS 386): 7.8 ng/mL (≈ 31.7 nM)
MIC ([2]; MRSA / NRS 386, NRS 386): 1.95 ng/mL (≈ 7.92 nM)
MBC ([2]; MRSA / NRS 387, NRS 387): 15.6 ng/mL (≈ 63.4 nM)
MIC ([2]; MRSA / NRS 387, NRS 387): 3.9 ng/mL (≈ 15.8 nM)
MBC ([2]; MRSA / NRS 483, NRS 483): 7.8 ng/mL (≈ 31.7 nM)
MIC ([2]; MRSA / NRS 483, NRS 483): 1.95 ng/mL (≈ 7.92 nM)
MBC ([2]; MRSA / NRS 484, NRS 484): 3.9 ng/mL (≈ 15.8 nM)
MIC ([2]; MRSA / NRS 484, NRS 484): 0.975 ng/mL (≈ 3.96 nM)
MBC ([3]; MSSA / NRS 72): 1.95 ng/mL (≈ 7.92 nM)
MIC ([3]; MSSA / NRS 72): 0.975 ng/mL (≈ 3.96 nM)
MBC ([3]; MSSA / NRS 77): 0.49 ng/mL (≈ 1.99 nM)
MIC ([3]; MSSA / NRS 77): 0.49 ng/mL (≈ 1.99 nM)
MBC ([3]; MSSA / NRS 846): 3.9 ng/mL (≈ 15.8 nM)
MIC ([3]; MSSA / NRS 846): 3.9 ng/mL (≈ 15.8 nM)
MBC ([3]; MSSA / NRS 860): 1.95 ng/mL (≈ 7.92 nM)
MIC ([3]; MSSA / NRS 860): 1.95 ng/mL (≈ 7.92 nM)
MBC ([4]; NRS 1 / VISA, NRS 1): 1.95 ng/mL (≈ 7.92 nM)
MIC ([4]; NRS 1 / VISA, NRS 1): 1.95 ng/mL (≈ 7.92 nM)
MBC ([4]; NRS 19 / VISA): 1.95 ng/mL (≈ 7.92 nM)
MIC ([4]; NRS 19 / VISA): 0.49 ng/mL (≈ 1.99 nM)
MBC ([4]; NRS 37 / VISA): 7.8 ng/mL (≈ 31.7 nM)
MIC ([4]; NRS 37 / VISA): 1.95 ng/mL (≈ 7.92 nM)
MBC (S. epidermidis NRS 101): 7.8 ng/mL (≈ 31.7 nM)
MIC (S. epidermidis NRS 101): 7.8 ng/mL (≈ 31.7 nM)
MBC [5]: 125 ng/mL (≈ 508 nM)
MIC [5]: 125 ng/mL (≈ 508 nM)
MBC [6]: 125 ng/mL (≈ 508 nM)
MIC [6]: 62.5 ng/mL (≈ 254 nM)
MIC90 [7]: 3.9 ng/mL (≈ 15.8 nM)
MBC (MRSA USA300; read-out: MBC): 0.5 µM (≈ 0.123 µg/mL)
MIC (MRSA USA300; read-out: MIC): < 0.5 µM
MBC [8]: 0.5 µM (≈ 0.123 µg/mL)
MIC ([8]; read-out: MIC): < 0.5 µM
mice survival compared to that of control (MRSA USA200; IP): 100%
mice survival compared to that of control (MRSA USA200; oral): 60%
